Tested on: human peripheral blood lymphocytes
Assay: Lipopolysaccharide-stimulated TNFα release from human peripheral blood lymphocytes
Assay type: cell-based
Conditions: Homo sapiens, Lymphocyte, LPS-stimulated TNFα release from human PBL; read-out: PBL/TNFα EC50
Protocol: The compounds of structural formula (II) also were tested for an ability to reduce TNFα secretion in human peripheral blood lymphocytes. The ability to reduce TNFα secretion is related to the EC50 values (i.e., the effective concentration of the compound capable of inhibiting 50% of the total TNFα).
To assess the ability of a compound to reduce TNFα secretion in human peripheral blood lymphocytes (PBL), the following tests were performed.
Heparinized blood (approximately 30 mL) drawn from human volunteers was mixed 1:1 with Dulbecco's modified phosphate-buffered saline. This mixture was mixed 1:1 with HISTOPAQUE® and centrifuged at 1,500 rpm at room temperature without braking in the swinging bucket of a Beckman model TJ6 centrifuge. Erythrocytes were centrifuged to the bottom of the tubes, and serum remained at the surface of the tubes. A layer containing lymphocytes sedimented between the serum and HISTOPAQUE® layers, and was removed by aspiration to a fresh tube. The cells were quantified and adjusted to 3×10^6 cells/mL and a 100 μL aliquot is placed into the wells of a 96 well plate. Test compounds and RPMI media (Gibco/BRL Life Sciences) are added to each of the wells 15 minutes prior to addition of bacterial LPS ([…]). The mixture was allowed to incubate for 20 hours at 37° C. in a humidified chamber. The cells then were separated by centrifuging at 800 rpm for 5 minutes at room temperature. An aliquot of 180 μL of supernatant was transferred to a new plate for determination of TNFα concentration. TNFα protein in the cell supernatant fluids was measured using a commercially available enzyme-linked immunosorbent assay (ELISA) (CYTOSCREEN® Immunoassay Kit from Biosource International).
The cell-based assay provided the following results for various pyrrolidine compounds of the present invention. The EC50 values (i.e., effective concentration of the compound capable of inhibiting 50% of the total TNFα) illustrate the ability of the present compounds to inhibit LPS-stimulated TNFα release from human PBL.

SMILES	EC50 [nM]
COc1ccc([C@@H]2CN(C(=O)[C@H](OC(C)=O)C3CCCCC3)C[C@@]2(C)[C@@H](C)O)cc1OC1CCCC1 [Example 90, 1-[3-((1R)-1-Hydroxyethyl)(3S,4S)-4-(3-cyclopentyloxy-4-methoxyphenyl)-3-methylpyrrolidinyl](2R)-2-cyclohexyl-2-acetoxyethan-1-one]	61
COc1ccc([C@@H]2CN(C(=O)CO)C[C@@]2(C)C(C)(C)O)cc1OCC1CC1 [Example 2, 1-[4-(S)-(3-Cyclopropylmethoxy-4-methoxyphenyl)-3-(1-hydroxy-1-methylethyl)-3-(S)-methylpyrrolidin-1-yl]-2-hydroxyethanone]	1900
COc1ccc([C@@H]2CN(C(=O)C(=O)NC3CCCC3)C[C@@]2(C)[C@@H](C)O)cc1OC1CCCC1 [Example 82, 2-[3-((1R)-1-Hydroxyethyl)(3S,4S)-4-(3-cyclopentyloxy-4-methoxyphenyl)-3-methylpyrrolidinyl]-N-cyclopentyl-2-oxoacetamide]	490
COc1ccc([C@@H]2CN(C(=O)C(N)=O)C[C@@]2(C)[C@@H](C)O)cc1OCCCOc1ccc(F)cc1 [Example 77, 2-[(3S,4S)-4-{3-[3-(4-Fluorophenoxy)propoxy]-4-methoxyphenyl}-3-((R)-1-hydroxyethyl)-3-methylpyrrolidin-1-yl]-2-oxo-acetamide]	580
COc1ccc([C@@H]2CN(C(=O)C(C)(C)OC(C)=O)C[C@@]2(C)[C@@H](C)O)cc1OC1CCCC1 [Example 70, 2-(3-((1R)-1-Hydroxyethyl)(3S,4S)-4-(3-cyclopentyloxy-4-methoxyphenyl) -3-methylpyrrolidinyl]-1,1-dimethyl-2-oxoethyl acetate]	547
COc1ccc([C@@H]2CN(C(=O)C(N)=O)C[C@@]2(C)[C@@H](C)O)cc1OC1Cc2ccccc2C1 [Example 79, 2-{(3S,4S)-3-((R)-1-Hydroxyethyl)-4-[3-(indan-2-yloxy)-4-methoxyphenyl]-3-methylpyrrolidin-1-yl}-2-oxo-acetamide]	2370
COC(=O)N1C[C@@H](c2ccc(OC)c(OC3CC4CCC3C4)c2)[C@](C)(C(C)O)C1 (stereo partly drawn) [Example 5, trans 4-[3-Exo-(Bicyclo[2.2.1]hept-2-yloxy)-4-methoxyphenyl]-3-(1-hydroxyethyl)-3-methylpyrrolidine-1-carboxylic acid methyl ester]	1550
COc1ccc([C@@H]2CN(c3cccnc3)C[C@@]2(C)[C@@H](C)O)cc1OC1CCCC1 [Example 35, (1R)-1-[(3S,4S)-4-(3-Cyclopentyloxy-4-methoxyphenyl)-3-methyl-1-(3-pyridyl)pyrrolidin-3-yl]ethan-1-ol]	20.3
COC(=O)N1C[C@@H](c2ccc(OC)c(OC3CCCC3)c2)[C@](C)(C(C)(C)O)C1 (racemic) [Example 1, (±)-4-(3-Cyclopentyloxy-4-methoxyphenyl)-3-(1-hydroxy-1-methylethyl)-3-methylpyrrolidine-1-carboxylic acid methyl ester]	1210
COc1ccc([C@@H]2CN(C(=O)[C@H](O)C3CCCCC3)C[C@@]2(C)[C@@H](C)O)cc1OC1CCCC1 [Example 91, (2R)-1-[3-((1R)-1-Hydroxyethyl)(3S,4S)-4-(3-cyclopentyloxy-4-methoxyphenyl)-3-methylpyrrolidinyl]-2-cyclohexyl-2-hydroxyethan-1-one]	44
COc1ccc([C@@H]2CN(c3ccccn3)C[C@@]2(C)[C@@H](C)O)cc1OC1CCCC1 [Example 34, (1R)-1-[(3S,4S)-4-(3-Cyclopentyloxy-4-methoxyphenyl)-3-methyl-1-(2-pyridyl)pyrrolidin-3-yl]ethan-1-ol]	250
COc1ccc([C@@H]2CN(C(=O)C(N)=O)C[C@@]2(C)[C@@H](C)O)cc1OCC1CC1 [Example 78, 2-[(3S,4S)-4-(3-Cyclopropylmethoxy-4-methoxyphenyl)-3-((R)-1-hydroxyethyl)-3-methylpyrrolidin-1-yl]-2-oxo-acetamide]	1290
COc1ccc([C@@H]2CN(C(=O)C(N)=O)C[C@@]2(C)[C@@H](C)O)cc1OC1CCCC1 [Example 74, 2-[3-((1R)-1-Hydroxyethyl)(3S,4S)-4-(3-cyclopentyloxy-4-methoxyphenyl)-3-methylpyrrolidinyl]-2-oxoacetamide]	557
COc1ccc([C@@H]2CN(C(=O)C(N)=O)C[C@@]2(C)[C@@H](C)O)cc1OCC#Cc1ccc(C(F)(F)F)cc1 [Example 76, 2-((3S,4S)-3-((R)-1-Hydroxyethyl)-4-{4-methoxy-3-(3-(4-trifluoromethyl-phenyl)prop-2-ynyloxy]-phenyl}-3-methylpyrrolidin-1-yl)-2-oxo-acetamide]	173
COC(=O)N1C[C@@H](c2ccc(OC)c(OC3Cc4ccccc4C3)c2)[C@](C)(C(C)O)C1 (mixture of isomers) [Example 4, trans-(±)-3-(1-Hydroxyethyl)-4-[3-(indan-2-yloxy)-4-methoxyphenyl]-3-methylpyrrolidine-1-carboxylic acid methyl ester]	3610
COc1ccc([C@@H]2CN(C(=O)C(=O)NCc3ccccc3)C[C@@]2(C)[C@@H](C)O)cc1OC1CCCC1 [Example 83, 2-[3-((1R)-1-Hydroxyethyl)(3S,4S)-4-(3-cyclopentyloxy-4-methoxyphenyl)-3-methylpyrrolidinyl]-2-oxo-N-benzylacetamide]	51
COc1ccc([C@@H]2CN(C(=O)[C@@H](OC(C)=O)C3CCCCC3)C[C@@]2(C)[C@@H](C)O)cc1OC1CCCC1 [Example 88, 2-[3-((1R)1-Hydroxyethyl)(3S,4S)-4-(3-cyclopentyloxy-4-methoxyphenyl)-3-methylpyrrolidinyl](1S)-1-cyclohexyl-2-oxoethyl acetate]	630
COC(=O)N1C[C@@H](c2ccc(OC)c(OC(C)CCc3ccccc3)c2)[C@](C)(C(C)O)C1 (relative stereo) [Example 6, trans-3-(1-Hydroxyethyl)-4-(4-methoxy-3-(1-methyl-3-phenylpropoxy)phenyl]-3-methylpyrrolidine-1-carboxylic acid methyl ester]	3660
COc1ccc([C@@H]2CN(C(=O)CO)C[C@@]2(C)[C@@H](C)O)cc1OC1CCCC1 [Example 65, 1-(3-((1R)-1-Hydroxyethyl)(3S,4S)-4-(3-cyclopentyloxy-4-methoxyphenyl)-3-methylpyrrolidinyl]-2-hydroxyethan-1-one]	181
CCCC[C@@H](NC(=O)OCc1ccccc1)C(=O)N1C[C@@H](c2ccc(OC)c(OC3CCCC3)c2)[C@](C)([C@@H](C)O)C1 [Example 84, N-{(1R)-2-[3-((1R)-1-Hydroxyethyl)(3S,4S)-4-(3-cyclopentyloxy-4-methoxyphenyl)-3-methylpyrrolidinyl]-1-butyl-2-oxoethyl}(phenylmethoxy)carboxamide]	40
COc1ccc([C@@H]2CN(C(=O)[C@@H](O)C3CCCCC3)C[C@@]2(C)[C@@H](C)O)cc1OC1CCCC1 [Example 89, 1-[3-((1R)-1-Hydroxyethyl)(3S,4S)-4-(3-cyclopentyloxy-4-methoxyphenyl)-3-methylpyrrolidinyl](2S)-2-cyclohexyl-2-hydroxyethan-1-one]	860
COc1ccc([C@@H]2CN(C(=O)C(=O)N3CCCCC3)C[C@@]2(C)[C@@H](C)O)cc1OC1CCCC1 [Example 81, 1-[3-((1R)-1-Hydroxyethyl)(3S,4S)-4-(3-cyclopentyloxy-4-methoxyphenyl)-3-methylpyrrolidinyl]-2-piperidylethane-1,2-dione]	625
CNC(=O)C(=O)N1C[C@@H](c2ccc(OC)c(OC3CCCC3)c2)[C@](C)([C@@H](C)O)C1 [Example 80, 2-[3-((1R)-1-Hydroxyethyl)(3S,4S)-4-(3-cyclopentyloxy-4-methoxyphenyl)-3-methylpyrrolidinyl]-N-methyl-2-oxoacetamide]	272
COc1ccc([C@@H]2CN(C(=O)[C@H](N)C(C)C)C[C@@]2(C)[C@@H](C)O)cc1OC1CCCC1 [Example 87, (2R)-1-[3-((1R)-1-Hydroxyethyl)(3S,4S)-4-(3-cyclopentyloxy-4-methoxyphenyl)-3-methylpyrrolidinyl]-2-amino-3-methylbutan-1-one]	934
COc1ccc([C@@H]2CN(c3cccnc3)C[C@@]2(C)[C@@H](C)O)cc1OC1Cc2ccccc2C1 [Example 32, (1R)-1-[(3S,4S)-4-(3-Indan-2-yloxy-4-methoxyphenyl)-3-methyl-1-(3-pyridyl)pyrrolidin-3-yl]ethan-1-ol]	801
COc1ccc([C@@H]2CN(C(=O)C(O)c3ccccc3)CC2(C)[C@@H](C)O)cc1OC1CCCC1 (stereo in doubt) [Example 63, 1-((3R)-3-((1R)-1-Hydroxyethyl)-4-(3-cyclopentyloxy-4-methoxyphenyl)-3-methylpyrrolidinyl]-2-hydroxy-2-phenylethan-1-one]	267

From patent US20040023945A1, “CYCLIC AMP-SPECIFIC PHOSPHODIESTERASE INHIBITORS” (ICOS Corporation, priority 1999, published 2004)
